Measurements: patent publication US10167262B2, “Herbicidal substituted 3-arylpyrazoles” (FMC CORPORATION, priority 2014, dated 2019)

How the values were obtained:
Type in all cases: in vivo
[1] = tested on: winter wheat (Triticum aestivum); experiment: Test C pre-/postemergence greenhouse test, plant response rating 0-100
Summary of the method: (§1)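 Seeds were sown in a loam soil–sand blend and sprayed preemergence with test chemicals in a non-phytotoxic solvent mixture containing surfactant; postemergence plants in peat/vermiculite medium were treated at 2–18 cm (1- to 4-leaf stage). After 13 to 15 days in the greenhouse, injury was rated visually against untreated controls.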

[2] = tested on: blackgrass (Alopecurus myosuroides); experiment: as above
Summary of the method: as §1

[3] = tested on: ragweed (common ragweed, Ambrosia elatior); experiment: as above
Summary of the method: as §1

[4] = tested on: Italian ryegrass (Lolium multiflorum); experiment: as above
Summary of the method: as §1

[5] = tested on: soybean (Glycine max); experiment: as above
Summary of the method: as §1

[6] = tested on: pigweed (Amaranthus retroflexus); experiment: as above
Summary of the method: as §1

[7] = tested on: galium (catchweed bedstraw, Galium aparine); experiment: as above
Summary of the method: as §1

[8] = tested on: yellow nutsedge (Cyperus esculentus); experiment: as above
Summary of the method: as §1

[9] = tested on: giant foxtail (Setaria faberii); experiment: as above
Summary of the method: as §1

[10] = tested on: corn (Zea mays); experiment: as above
Summary of the method: as §1

[11] = tested on: large (Lg) crabgrass (Digitaria sanguinalis); experiment: as above
Summary of the method: as §1

[12] = tested on: wild oat (Avena fatua); experiment: Test C postemergence greenhouse test, plant response rating 0-100; conditions: for Plant response rating, Oat, Wild: 250 g ai/ha, scale 0 to 100
Summary of the method: (§2)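 Visual rating vs. controls, 0 (no effect) to 100 (complete control), 13–15 d after postemergence treatment. Potted plants, 1- to 4-leaf stage (2–18 cm), greenhouse-held.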

[13] = tested on: kochia (Kochia scoparia); experiment: as above; conditions: for Plant response rating, Kochia: 250 g ai/ha, scale 0 to 100
Summary of the method: as §2

[14] = tested on: chickweed (common chickweed, Stellaria media); experiment: as above; conditions: for Plant response rating, Chickweed: 250 g ai/ha, scale 0 to 100
Summary of the method: as §2

[15] = Postemergence, 250 g ai/ha, scale 0 to 100

O=C(c1cncc(F)c1)c1c[nH]nc1-c1cc(Cl)cc(Cl)c1 [Compound 19]
Plant response rating (0 to 100), Wheat ([1]; Postemergence, 62 g ai/ha): 0 | Plant response rating (0 to 100), Wheat ([1]; Postemergence, 125 g ai/ha): 0 | Plant response rating, Wheat [1, 15]: 0 | Plant response rating, Wheat ([1]; Preemergence, 62 g ai/ha): 0 | Plant response rating, Wheat ([1]; Preemergence, 125 g ai/ha): 0 | Plant response rating, Wheat ([1]; Preemergence, 250 g ai/ha): 0 | Plant response rating (0 to 100), Blackgrass ([2]; Postemergence, 31 g ai/ha): 0 | Plant response rating (0 to 100), Blackgrass ([2]; Postemergence, 62 g ai/ha): 0 | Plant response rating, Blackgrass ([2]; Postemergence, 125 g ai/ha, scale 0 to 100): 0 | Plant response rating, Blackgrass [2, 15]: 0 | Plant response rating, Blackgrass ([2]; Preemergence, 31 g ai/ha): 10 | Plant response rating, Blackgrass ([2]; Preemergence, 62 g ai/ha): 0 | Plant response rating, Blackgrass ([2]; Preemergence, 125 g ai/ha): 0 | Plant response rating, Blackgrass ([2]; Preemergence, 250 g ai/ha): 50 | Plant response rating (0 to 100), Ragweed ([3]; Postemergence, 62 g ai/ha): 70 | Plant response rating (0 to 100), Ragweed ([3]; Postemergence, 125 g ai/ha): 80 | Plant response rating, Ragweed [3, 15]: 90 | Plant response rating, Ragweed ([3]; Preemergence, 62 g ai/ha): 85 | Plant response rating, Ragweed ([3]; Preemergence, 125 g ai/ha): 100 | Plant response rating, Ragweed ([3]; Preemergence, 250 g ai/ha): 100 | Plant response rating (0 to 100), Ryegrass, Italian ([4]; Postemergence, 62 g ai/ha): 0 | Plant response rating (0 to 100), Ryegrass, Italian ([4]; Postemergence, 125 g ai/ha): 0 | Plant response rating, Ryegrass, Italian [4, 15]: 5 | Plant response rating, Ryegrass, Italian ([4]; Preemergence, 62 g ai/ha): 0 | Plant response rating, Ryegrass, Italian ([4]; Preemergence, 125 g ai/ha): 0 | Plant response rating, Ryegrass, Italian ([4]; Preemergence, 250 g ai/ha): 10 | Plant response rating (0 to 100), Soybean ([5]; Postemergence, 62 g ai/ha): 0 | Plant response rating (0 to 100), Soybean ([5]; Postemergence, 125 g ai/ha): 0 | Plant response rating, Soybean [5, 15]: 0 | Plant response rating, Soybean ([5]; Preemergence, 62 g ai/ha): 0 | Plant response rating, Soybean ([5]; Preemergence, 125 g ai/ha): 0 | Plant response rating, Soybean ([5]; Preemergence, 250 g ai/ha): 85 | Plant response rating (0 to 100), Pigweed ([6]; Postemergence, 62 g ai/ha): 85 | Plant response rating (0 to 100), Pigweed ([6]; Postemergence, 125 g ai/ha): 90 | Plant response rating, Pigweed [6, 15]: 95 | Plant response rating, Pigweed ([6]; Preemergence, 31 g ai/ha): 75 | Plant response rating, Pigweed ([6]; Preemergence, 62 g ai/ha): 85 | Plant response rating, Pigweed ([6]; Preemergence, 125 g ai/ha): 100 | Plant response rating, Pigweed ([6]; Preemergence, 250 g ai/ha): 100 | Plant response rating (0 to 100), Galium ([7]; Postemergence, 31 g ai/ha): 15 | Plant response rating (0 to 100), Galium ([7]; Postemergence, 62 g ai/ha): 40 | Plant response rating (0 to 100), Galium ([7]; Postemergence, 125 g ai/ha): 40 | Plant response rating, Galium [7, 15]: 45 | Plant response rating, Galium ([7]; Preemergence, 31 g ai/ha): 0 | Plant response rating, Galium ([7]; Preemergence, 62 g ai/ha): 80 | Plant response rating, Galium ([7]; Preemergence, 125 g ai/ha): 95 | Plant response rating, Galium ([7]; Preemergence, 250 g ai/ha): 100 | Plant response rating (0 to 100), Nutsedge, Yellow ([8]; Postemergence, 62 g ai/ha): 5 | Plant response rating (0 to 100), Nutsedge, Yellow ([8]; Postemergence, 125 g ai/ha): 5 | Plant response rating, Nutsedge, Yellow [8, 15]: 5 | Plant response rating, Nutsedge, Yellow ([8]; Preemergence, 31 g ai/ha): 0 | Plant response rating, Nutsedge, Yellow ([8]; Preemergence, 62 g ai/ha): 0 | Plant response rating, Nutsedge, Yellow ([8]; Preemergence, 125 g ai/ha): 0 | Plant response rating, Nutsedge, Yellow ([8]; Preemergence, 250 g ai/ha): 0 | Plant response rating (0 to 100), Foxtail, Giant ([9]; Postemergence, 31 g ai/ha): 0 | Plant response rating (0 to 100), Foxtail, Giant ([9]; Postemergence, 62 g ai/ha): 0 | Plant response rating (0 to 100), Foxtail, Giant ([9]; Postemergence, 125 g ai/ha): 5 | Plant response rating, Foxtail, Giant [9, 15]: 5 | Plant response rating, Foxtail, Giant ([9]; Preemergence, 31 g ai/ha): 0 | Plant response rating, Foxtail, Giant ([9]; Preemergence, 62 g ai/ha): 0 | Plant response rating, Foxtail, Giant ([9]; Preemergence, 125 g ai/ha): 0 | Plant response rating, Foxtail, Giant ([9]; Preemergence, 250 g ai/ha): 0 | Plant response rating (0 to 100), Corn ([10]; Postemergence, 31 g ai/ha): 0 | Plant response rating (0 to 100), Corn ([10]; Postemergence, 62 g ai/ha): 0 | Plant response rating (0 to 100), Corn ([10]; Postemergence, 125 g ai/ha): 0 | Plant response rating, Corn [10, 15]: 0 | Plant response rating, Corn ([10]; Preemergence, 31 g ai/ha): 0 | Plant response rating, Corn ([10]; Preemergence, 62 g ai/ha): 0 | Plant response rating, Corn ([10]; Preemergence, 125 g ai/ha): 0 | Plant response rating, Corn ([10]; Preemergence, 250 g ai/ha): 0 | Plant response rating (0 to 100), Crabgrass, Large ([11]; Postemergence, 31 g ai/ha): 0 | Plant response rating (0 to 100), Crabgrass, Large ([11]; Postemergence, 62 g ai/ha): 0 | Plant response rating (0 to 100), Crabgrass, Large ([11]; Postemergence, 125 g ai/ha): 10 | Plant response rating, Crabgrass, Large [11, 15]: 10 | Plant response rating, Crabgrass, Large ([11]; Preemergence, 31 g ai/ha): 0 | Plant response rating, Crabgrass, Large ([11]; Preemergence, 62 g ai/ha): 0 | Plant response rating, Crabgrass, Large ([11]; Preemergence, 125 g ai/ha): 0 | Plant response rating, Crabgrass, Large ([11]; Preemergence, 250 g ai/ha): 0 | Plant response rating (0 to 100), Oat, Wild ([12]; 62 g ai/ha): 0 | Plant response rating (0 to 100), Oat, Wild ([12]; 125 g ai/ha): 0 | Plant response rating, Oat, Wild [12]: 0 | Plant response rating (0 to 100), Kochia ([13]; 62 g ai/ha): 80 | Plant response rating (0 to 100), Kochia ([13]; 125 g ai/ha): 85 | Plant response rating, Kochia [13]: 90 | Plant response rating (0 to 100), Chickweed ([14]; 31 g ai/ha): 95 | Plant response rating (0 to 100), Chickweed ([14]; 62 g ai/ha): 80 | Plant response rating (0 to 100), Chickweed ([14]; 125 g ai/ha): 98 | Plant response rating, Chickweed [14]: 98

C=CCn1cc(C(=O)c2ccccc2)c(-c2cc(Cl)cc(Cl)c2)n1 [Compound 60]
Plant response rating (0 to 100), Wheat ([1]; Postemergence, 62 g ai/ha): 0 | Plant response rating (0 to 100), Wheat ([1]; Postemergence, 125 g ai/ha): 0 | Plant response rating, Wheat [1, 15]: 0 | Plant response rating (0 to 100), Blackgrass ([2]; Postemergence, 31 g ai/ha): 0 | Plant response rating (0 to 100), Blackgrass ([2]; Postemergence, 62 g ai/ha): 0 | Plant response rating (0 to 100), Blackgrass ([2]; Postemergence, 125 g ai/ha): 0 | Plant response rating, Blackgrass [2, 15]: 0 | Plant response rating (0 to 100), Ragweed ([3]; Postemergence, 62 g ai/ha): 30 | Plant response rating (0 to 100), Ragweed ([3]; Postemergence, 125 g ai/ha): 30 | Plant response rating, Ragweed [3, 15]: 35 | Plant response rating (0 to 100), Ryegrass, Italian ([4]; Postemergence, 62 g ai/ha): 0 | Plant response rating (0 to 100), Ryegrass, Italian ([4]; Postemergence, 125 g ai/ha): 0 | Plant response rating, Ryegrass, Italian [4, 15]: 0 | Plant response rating (0 to 100), Soybean ([5]; Postemergence, 62 g ai/ha): 5 | Plant response rating (0 to 100), Soybean ([5]; Postemergence, 125 g ai/ha): 5 | Plant response rating, Soybean [5, 15]: 5 | Plant response rating (0 to 100), Pigweed ([6]; Postemergence, 62 g ai/ha): 60 | Plant response rating (0 to 100), Pigweed ([6]; Postemergence, 125 g ai/ha): 65 | Plant response rating, Pigweed [6, 15]: 100 | Plant response rating (0 to 100), Galium ([7]; Postemergence, 31 g ai/ha): 0 | Plant response rating (0 to 100), Galium ([7]; Postemergence, 62 g ai/ha): 0 | Plant response rating (0 to 100), Galium ([7]; Postemergence, 125 g ai/ha): 0 | Plant response rating, Galium [7, 15]: 0 | Plant response rating (0 to 100), Nutsedge, Yellow ([8]; Postemergence, 62 g ai/ha): 0 | Plant response rating (0 to 100), Nutsedge, Yellow ([8]; Postemergence, 125 g ai/ha): 0 | Plant response rating, Nutsedge, Yellow [8, 15]: 0 | Plant response rating (0 to 100), Foxtail, Giant ([9]; Postemergence, 31 g ai/ha): 0 | Plant response rating (0 to 100), Foxtail, Giant ([9]; Postemergence, 62 g ai/ha): 5 | Plant response rating (0 to 100), Foxtail, Giant ([9]; Postemergence, 125 g ai/ha): 5 | Plant response rating, Foxtail, Giant [9, 15]: 5 | Plant response rating (0 to 100), Corn ([10]; Postemergence, 31 g ai/ha): 5 | Plant response rating (0 to 100), Corn ([10]; Postemergence, 62 g ai/ha): 5 | Plant response rating (0 to 100), Corn ([10]; Postemergence, 125 g ai/ha): 5 | Plant response rating, Corn [10, 15]: 5 | Plant response rating (0 to 100), Crabgrass, Large ([11]; Postemergence, 31 g ai/ha): 0 | Plant response rating (0 to 100), Crabgrass, Large ([11]; Postemergence, 62 g ai/ha): 0 | Plant response rating (0 to 100), Crabgrass, Large ([11]; Postemergence, 125 g ai/ha): 5 | Plant response rating, Crabgrass, Large [11, 15]: 5 | Plant response rating (0 to 100), Oat, Wild ([12]; 62 g ai/ha): 0 | Plant response rating (0 to 100), Oat, Wild ([12]; 125 g ai/ha): 0 | Plant response rating, Oat, Wild [12]: 0 | Plant response rating (0 to 100), Kochia ([13]; 62 g ai/ha): 10 | Plant response rating (0 to 100), Kochia ([13]; 125 g ai/ha): 20 | Plant response rating, Kochia [13]: 55 | Plant response rating (0 to 100), Chickweed ([14]; 31 g ai/ha): 75 | Plant response rating (0 to 100), Chickweed ([14]; 125 g ai/ha): 100 | Plant response rating, Chickweed [14]: 100
